Patent US8492310B2, “Herbicidal compositions containing benzoylpyrazole compounds” (priority 2008, dated 2013)
Where two headings read alike, the source gives them in different places.

Assays:
[1] = system: velvetleaf (Abutilon theophrasti MEDIC.); experiment: Foliar treatment pot test, visual growth inhibition rate, velvetleaf (AT); format: in vivo
Excerpt: (§1) When the herbicidal activity in a case where two active ingredients are combined, is larger than the simple sum of the respective herbicidal activities of the two active ingredients (the expected activity), it is called a synergistic effect. The activity expected by the combination of two active ingredients can be calculated as follows (Colby S. R., “Weed”, vol. 15, p. 20-22, 1967). E=α+β−(α×β÷100) where
(§2) Upland field soil was put into a 1/1,000,000 hectare pot, and seeds of various plants (barnyardgrass (Echinochloa crus-qalli L.), crabgrass (Digitaria sanguinalis L.), giant foxtail (Setaria faberi Herrm.), velvetleaf (Abutilon theophrasti MEDIC.) and prickly sida (Sida spinosa L.)) were sown. When the respective plants reached predetermined leaf stage, herbicidal compositions in predetermined amounts were diluted with water in an amount corresponding to 300 L/ha and applied for foliar treatment by a small sprayer.
(§3) Further, in accordance with the above Colby's formula, the growth inhibition rate (calculated value) was calculated. In Tables, with respect to the compound Q, Compound Nos. in Table 1 are described, and with respect to other herbicidal compounds, common names are described. Further, in Tables, barnyardgrass is represented by “EC”, crabgrass by “DS”, giant foxtail by “SF”, velvetleaf by “AT”, and prickly sida by “SS”.

[2] = system: crabgrass (Digitaria sanguinalis L.); experiment: Foliar treatment pot test, visual growth inhibition rate, crabgrass (DS); format: in vivo; settings: for inhibition at […]: 2.5 g/ha
Excerpt: as §1, §2, §3

[3] = Abutilon theophrasti, foliar, 528 h, 4.1-4.5 leaf stage, 22 DAT, read-out: Growth inhibition rate (%) of AT Measured value
[4] = Abutilon theophrasti, foliar, 552 h, 3.0-3.5 leaf stage, 23 DAT, read-out: Growth inhibition rate (%) of AT Measured value
[5] = Digitaria sanguinalis, foliar, 528 h, 4.0-5.0 leaf stage, 22 DAT, read-out: Growth inhibition rate (%) of DS Measured value
[6] = Digitaria sanguinalis, foliar, 552 h, 4.0-5.1 leaf stage, 23 DAT, read-out: Growth inhibition rate (%) of DS Measured value
[7] = Abutilon theophrasti, foliar, 528 h, 4.5-5.0 leaf stage, 22 DAT, read-out: Growth inhibition rate (%) of AT Measured value
[8] = Digitaria sanguinalis, foliar, 504 h, 4.0-5.1 leaf stage, 21 DAT, read-out: Growth inhibition rate (%) of DS Measured value

O=C(O)c1nc(Cl)ccc1Cl [Clopyralid, clopyralid]
inhibition at 300 g/ha [1, 3]: 40% | inhibition at 300 g/ha [1, 4]: 35% | inhibition at 300 g/ha [2, 5]: 0% | inhibition at 300 g/ha [2, 6]: 0%

O=C(O)COc1ccc(Cl)cc1Cl [2,4-D]
Growth inhibition rate (%) of AT Measured value ([1]; 4.2-4.3 leaf stage, 20 DAT, 25 g/ha): 45%

CS(=O)(=O)c1ccc(C(=O)C2C(=O)CCCC2=O)c(Cl)c1 [Sulcotrione]
inhibition at 31 g/ha ([1]; Abutilon theophrasti, foliar, 576 h, read-out: Growth inhibition rate (%) of AT Measured value, 3.2-4.1 leaf stage, 24 DAT, 31 g/ha): 60% | inhibition at 25 g/ha ([2]; Digitaria sanguinalis, foliar, 480 h, read-out: Growth inhibition rate (%) of DS Measured value, 3.7-4.0 leaf stage, 20 DAT, 25 g/ha): 45% | inhibition at 50 g/ha ([2]; Digitaria sanguinalis, foliar, 480 h, read-out: Growth inhibition rate (%) of DS Measured value, 3.7-4.0 leaf stage, 20 DAT, 50 g/ha): 60% | inhibition at 100 g/ha ([2]; Digitaria sanguinalis, foliar, 480 h, read-out: Growth inhibition rate (%) of DS Measured value, 3.7-4.0 leaf stage, 20 DAT, 100 g/ha): 80% | inhibition at 50 g/ha ([2]; Digitaria sanguinalis, foliar, 480 h, read-out: Growth inhibition rate (%) of DS Measured value, 5.1-5.2 leaf stage, 20 DAT, 50 g/ha): 60% | inhibition at 100 g/ha ([2]; Digitaria sanguinalis, foliar, 480 h, read-out: Growth inhibition rate (%) of DS Measured value, 5.1-5.2 leaf stage, 20 DAT, 100 g/ha): 95%

COc1nc(C)nc(NC(=O)NS(=O)(=O)c2ccccc2CCC(F)(F)F)n1 [Prosulfuron, prosulfuron]
inhibition at 10 g/ha ([1]; Abutilon theophrasti, foliar, 504 h, 3.0-3.5 leaf stage, 21 DAT, read-out: Growth inhibition rate (%) of AT Measured value): 100% | inhibition at 1.25 g/ha ([1]; Abutilon theophrasti, foliar, 504 h, 4.0-4.3 leaf stage, 21 DAT, 1.25 g/ha, read-out: Growth inhibition rate (%) of AT Measured value): 50% | inhibition at 5 g/ha ([1]; Abutilon theophrasti, foliar, 504 h, 4.0-4.3 leaf stage, 21 DAT, read-out: Growth inhibition rate (%) of AT Measured value): 95% | inhibition at 5 g/ha [1, 3]: 90% | inhibition at 5 g/ha [1, 7]: 0% | inhibition at 10 g/ha [1, 7]: 0% | inhibition at 1.25 g/ha ([2]; Digitaria sanguinalis, foliar, 504 h, 4.0-5.1 leaf stage, 21 DAT, 1.25 g/ha, read-out: Growth inhibition rate (%) of DS Measured value): 10% | inhibition at […] [2, 8]: 5% | inhibition at 5 g/ha [2, 8]: 0% | inhibition at 5 g/ha [2, 5]: 0% | inhibition at […] ([2]; Digitaria sanguinalis, foliar, 528 h, 4.8-5.5 leaf stage, 22 DAT, read-out: Growth inhibition rate (%) of DS Measured value): 0% | inhibition at 10 g/ha ([2]; Digitaria sanguinalis, foliar, 552 h, 4.0-5.1 leaf stage, 23 DAT, 10 g/ha, read-out: Growth inhibition rate (%) of DS Measured value): 0%

N.O=C(O)CNCP(=O)(O)O [Glyphosate-ammonium, glyphosate-ammonium]
Growth inhibition rate (%) of AT Measured value ([1]; 3.5-4.3 leaf stage, 14 DAT, 100 g/ha): 30% | Growth inhibition rate (%) of AT Measured value ([1]; 3.5-4.3 leaf stage, 21 DAT, 200 g/ha): 15% | Growth inhibition rate (%) of DS Measured value ([2]; 5.0-5.5 leaf stage, 21 DAT, 100 g/ha): 10%

Cn1nc(C(F)(F)F)c(CS(=O)(=O)C2=NOC(C)(C)C2)c1OC(F)F [Pyroxasulfone, pyroxasulfone]
inhibition at 50 g/ha ([1]; Abutilon theophrasti, foliar, 312 h, 3.3-4.2 leaf stage, 13 DAT, 50 g/ha, read-out: Growth inhibition rate (%) of AT Measured value): 5% | inhibition at 50 g/ha ([1]; Abutilon theophrasti, foliar, 336 h, 3.0-4.0 leaf stage, 14 DAT, 50 g/ha, read-out: Growth inhibition rate (%) of AT Measured value): 0% | inhibition at 50 g/ha ([1]; Abutilon theophrasti, foliar, 504 h, 3.0-3.5 leaf stage, 21 DAT, 50 g/ha, read-out: Growth inhibition rate (%) of AT Measured value): 0% | inhibition at 50 g/ha ([2]; Digitaria sanguinalis, foliar, 312 h, 4.4-5.0 leaf stage, 13 DAT, 50 g/ha, read-out: Growth inhibition rate (%) of DS Measured value): 0% | inhibition at 100 g/ha ([2]; Digitaria sanguinalis, foliar, 336 h, 4.0-5.0 leaf stage, 14 DAT, 100 g/ha, read-out: Growth inhibition rate (%) of DS Measured value): 5% | inhibition at 50 g/ha ([2]; Digitaria sanguinalis, foliar, 504 h, 4.0-5.0 leaf stage, 21 DAT, 50 g/ha, read-out: Growth inhibition rate (%) of DS Measured value): 10%

CS(=O)(=O)c1ccc(C(=O)C2C(=O)CCCC2=O)c(Cl)c1 [sulcotrione]
inhibition at 25 g/ha ([1]; Abutilon theophrasti, foliar, 480 h, read-out: Growth inhibition rate (%) of AT Measured value, 4.0-4.2 leaf stage, 20 DAT, 25 g/ha): 40% | inhibition at 50 g/ha ([1]; Abutilon theophrasti, foliar, 480 h, read-out: Growth inhibition rate (%) of AT Measured value, 4.0-4.2 leaf stage, 20 DAT, 50 g/ha): 60% | inhibition at 100 g/ha ([1]; Abutilon theophrasti, foliar, 480 h, read-out: Growth inhibition rate (%) of AT Measured value, 4.0-4.2 leaf stage, 20 DAT, 100 g/ha): 95%

CC(C)N(C(=O)COc1nnc(C(F)(F)F)s1)c1ccc(F)cc1 [Flufenacet]
inhibition at 300 g/ha [1, 4]: 0% | inhibition at 200 g/ha ([2]; Digitaria sanguinalis, foliar, 480 h, 5.0-5.2 leaf stage, 20 DAT, 200 g/ha, read-out: Growth inhibition rate (%) of DS Measured value): 0% | inhibition at 300 g/ha [2, 6]: 0%

CON(C)C(=O)Nc1ccc(Cl)c(Cl)c1 [Linuron, linuron]
inhibition at 250 g/ha ([1]; Abutilon theophrasti, foliar, 336 h, 3.5-4.3 leaf stage, 14 DAT, read-out: Growth inhibition rate (%) of AT Measured value): 85% | inhibition at 250 g/ha ([1]; Abutilon theophrasti, foliar, 576 h, 3.2-4.1 leaf stage, 24 DAT, read-out: Growth inhibition rate (%) of AT Measured value): 40% | inhibition at 250 g/ha ([2]; Digitaria sanguinalis, foliar, 336 h, 5.0-5.5 leaf stage, 14 DAT, 250 g/ha, read-out: Growth inhibition rate (%) of DS Measured value): 30%

CCOC(=O)OC(C)Oc1c(C(=O)c2ccc(S(C)(=O)=O)c(OCCOC)c2C)cnn1C (stereo not shown) [NO. 2]
Growth inhibition rate (%) of AT Measured value ([1]; 4.0-4.3 leaf stage, 22 DAT, 3.75 g/ha): 0%

COC(=O)c1c(Cl)nn(C)c1S(=O)(=O)NC(=O)Nc1nc(OC)cc(OC)n1 [Halosulfuron-methyl]
inhibition at 20 g/ha ([2]; Digitaria sanguinalis, foliar, 336 h, read-out: Growth inhibition rate (%) of DS Measured value, 5.0-5.5 leaf stage, 14 DAT, 20 g/ha): 0%

CCc1cccc(CC)c1N(COC)C(=O)CCl [Alachlor, alachlor]
inhibition at 300 g/ha ([1]; Abutilon theophrasti, foliar, 504 h, 3.8-4.4 leaf stage, 21 DAT, read-out: Growth inhibition rate (%) of AT Measured value): 0% | inhibition at 300 g/ha ([2]; Digitaria sanguinalis, foliar, 504 h, 5.0-5.5 leaf stage, 21 DAT, read-out: Growth inhibition rate (%) of DS Measured value): 10%

CCOC(=O)C(Cl)Cc1cc(-n2nc(C)n(C(F)F)c2=O)c(F)cc1Cl (stereo not shown) [Carfentrazone-ethyl, carfentrazone-ethyl]
inhibition at 15 g/ha ([1]; Abutilon theophrasti, foliar, 336 h, read-out: Growth inhibition rate (%) of AT Measured value, 3.0-4.0 leaf stage, 14 DAT, 15 g/ha): 98% | inhibition at 7 g/ha ([1]; Abutilon theophrasti, foliar, 504 h, read-out: Growth inhibition rate (%) of AT Measured value, 3.0-3.5 leaf stage, 21 DAT, 7 g/ha): 99% | inhibition at 15 g/ha ([2]; Digitaria sanguinalis, foliar, 336 h, read-out: Growth inhibition rate (%) of DS Measured value, 4.0-5.0 leaf stage, 14 DAT, 15 g/ha): 5% | inhibition at 15 g/ha ([2]; Digitaria sanguinalis, foliar, 384 h, read-out: Growth inhibition rate (%) of DS Measured value, 4.0-5.0 leaf stage, 16 DAT, 15 g/ha): 0%

CCS(=O)(=O)c1cccnc1S(=O)(=O)NC(=O)Nc1nc(OC)cc(OC)n1 [Rimsulfuron, rimsulfuron]
inhibition at 20 g/ha ([1]; Abutilon theophrasti, foliar, 504 h, 3.5-4.3 leaf stage, 21 DAT, 20 g/ha, read-out: Growth inhibition rate (%) of AT Measured value): 99% | inhibition at 15 g/ha ([1]; Abutilon theophrasti, foliar, 552 h, 3.0-3.5 leaf stage, 23 DAT, 15 g/ha, read-out: Growth inhibition rate (%) of AT Measured value): 70% | inhibition at 15 g/ha ([2]; Digitaria sanguinalis, foliar, 552 h, 4.0-5.1 leaf stage, 23 DAT, 15 g/ha, read-out: Growth inhibition rate (%) of DS Measured value): 98%

CP(=O)(O)CCC(N)C(=O)O (stereo not shown) [Glufosinate-ammonium, glufosinate-ammonium]
inhibition at 200 g/ha ([1]; Abutilon theophrasti, foliar, 528 h, read-out: Growth inhibition rate (%) of AT Measured value, 4.1-4.5 leaf stage, 22 DAT, 200 g/ha): 10% | inhibition at 200 g/ha ([1]; Abutilon theophrasti, foliar, 576 h, read-out: Growth inhibition rate (%) of AT Measured value, 3.2-4.1 leaf stage, 24 DAT, 200 g/ha): 30% | inhibition at 100 g/ha ([2]; Digitaria sanguinalis, foliar, 528 h, read-out: Growth inhibition rate (%) of DS Measured value, 4.0-5.0 leaf stage, 22 DAT, 100 g/ha): 0%

O=C(O)CNCP(=O)([O-])O.[K+] [Glyphosate-potassium]
Growth inhibition rate (%) of DS Measured value ([2]; 4.0-4.2 leaf stage, 20 DAT, 62.5 g/ha): 0% | Growth inhibition rate (%) of DS Measured value ([2]; 4.0-4.2 leaf stage, 20 DAT, 125 g/ha): 5% | Growth inhibition rate (%) of DS Measured value ([2]; 4.0-4.2 leaf stage, 20 DAT, 250 g/ha): 20%
